Laboratory results reported in ChEMBL document CHEMBL4673325, “Identification of 2-substituted pyrrolo[1,2-b]pyridazine derivatives as new PARP-1 inhibitors” (Bioorg Med Chem Lett, 2021).

Tests used:
[1] = biological target: Poly [ADP-ribose] polymerase 1 (Homo sapiens, UniProt P09874); assay: Inhibition of PARP-1 (unknown origin)
[2] = biological target: Poly [ADP-ribose] polymerase 2 (Homo sapiens, UniProt Q9UGN5); assay: Inhibition of PARP-2 (unknown origin)
MDA-MB-436 [3] = assay: Antiproliferative activity against BRCA1 deficient human MDA-MB-436 cells; type: functional
[4] = Antiproliferative activity against BRCA2 deficient chinese hamster V-C8 cells; type: functional, Cricetulus griseus
Homo sapiens = species: Homo sapiens; assay: Selectivity index, ratio of IC50 for PARP-2 (unknown origin) to IC50 for PARP-1 (unknown origin)
MDA-MB-436 [5] = assay: Antitumor activity against human MDA-MB-436 cells harboring BRCA1 mutation xenografted in mouse assessed as tumor growth inhibition administered orally for 21 days; type: functional; settings: time 21.0 day

Poly [ADP-ribose] polymerase 2, sequence (Q9UGN5 whole entry): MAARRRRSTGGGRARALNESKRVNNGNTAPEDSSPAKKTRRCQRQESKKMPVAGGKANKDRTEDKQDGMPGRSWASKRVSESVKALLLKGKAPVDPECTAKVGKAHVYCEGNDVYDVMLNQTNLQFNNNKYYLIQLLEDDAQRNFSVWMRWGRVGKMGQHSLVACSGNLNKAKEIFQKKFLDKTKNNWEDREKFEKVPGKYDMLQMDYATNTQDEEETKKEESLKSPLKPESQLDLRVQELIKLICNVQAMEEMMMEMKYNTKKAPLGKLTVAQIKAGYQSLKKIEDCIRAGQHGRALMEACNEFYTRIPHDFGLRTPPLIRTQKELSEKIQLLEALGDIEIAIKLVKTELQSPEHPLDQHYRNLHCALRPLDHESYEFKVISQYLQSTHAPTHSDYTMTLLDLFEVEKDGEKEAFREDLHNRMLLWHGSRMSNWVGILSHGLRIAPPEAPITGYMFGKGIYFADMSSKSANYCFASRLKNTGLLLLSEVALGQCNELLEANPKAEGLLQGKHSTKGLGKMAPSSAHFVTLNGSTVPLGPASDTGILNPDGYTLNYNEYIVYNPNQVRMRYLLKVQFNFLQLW
Poly [ADP-ribose] polymerase 1, sequence (P09874 whole entry): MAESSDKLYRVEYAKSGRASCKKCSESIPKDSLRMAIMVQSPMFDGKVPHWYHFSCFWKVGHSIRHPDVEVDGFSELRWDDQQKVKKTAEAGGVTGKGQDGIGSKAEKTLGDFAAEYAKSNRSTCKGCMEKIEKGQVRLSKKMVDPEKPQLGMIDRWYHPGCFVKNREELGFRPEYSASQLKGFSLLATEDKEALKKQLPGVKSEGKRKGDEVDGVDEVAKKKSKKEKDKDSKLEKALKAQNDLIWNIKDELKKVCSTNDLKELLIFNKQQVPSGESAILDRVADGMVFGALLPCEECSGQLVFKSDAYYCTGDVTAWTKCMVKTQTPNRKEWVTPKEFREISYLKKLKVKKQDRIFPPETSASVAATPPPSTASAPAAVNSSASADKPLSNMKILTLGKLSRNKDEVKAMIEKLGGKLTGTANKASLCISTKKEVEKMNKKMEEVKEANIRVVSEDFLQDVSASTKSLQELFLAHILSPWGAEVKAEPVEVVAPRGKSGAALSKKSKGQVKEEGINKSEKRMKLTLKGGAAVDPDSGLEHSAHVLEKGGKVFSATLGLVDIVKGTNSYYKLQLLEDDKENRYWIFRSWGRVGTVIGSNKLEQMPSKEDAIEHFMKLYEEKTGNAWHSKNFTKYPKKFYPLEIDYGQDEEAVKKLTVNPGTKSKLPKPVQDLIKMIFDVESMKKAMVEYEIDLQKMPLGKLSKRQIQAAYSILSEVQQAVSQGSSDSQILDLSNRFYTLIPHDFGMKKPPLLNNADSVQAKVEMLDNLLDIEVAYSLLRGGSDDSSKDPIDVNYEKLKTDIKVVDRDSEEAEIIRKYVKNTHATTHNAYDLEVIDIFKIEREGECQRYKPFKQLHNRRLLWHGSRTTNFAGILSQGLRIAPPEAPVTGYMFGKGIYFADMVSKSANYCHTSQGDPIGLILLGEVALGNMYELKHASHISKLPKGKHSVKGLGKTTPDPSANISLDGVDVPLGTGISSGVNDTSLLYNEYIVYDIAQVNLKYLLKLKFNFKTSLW

SMILES | IC50 [1] | IC50 [2] | CC50 (MDA-MB-436 [3]; Homo sapiens, MDA-MB-436) | CC50 ([4]; Cricetulus griseus, V-C8) | Ratio IC50 (Homo sapiens) | TGI (MDA-MB-436 [5]) | CC50 (MDA-MB-436 [3]) | CC50 [4]
CC(C)(C)C1NCCc2cc(-c3ccc4c(Cl)cc(C(N)=O)n4n3)sc21 (centres undefined) | 1030 nM | 1000 nM | 1460 nM | 2040 nM | 0.97 |  |  | 
NC(=O)c1cc(Cl)c2ccc(-c3cc4c(s3)CCNC4)nn12 | 7.24 nM | 209 nM | 214 nM | 1330 nM |  |  |  | 
NC(=O)c1cc(Cl)c2ccc(-c3ccc(CN4CCN(C5CC5)CC4)cc3)nn12 | 1080 nM | 997 nM | 75200 nM | > 10000 nM | 0.92 |  |  | 
CN1CCc2cc(-c3ccc4c(Cl)cc(C(N)=O)n4n3)sc2C1 | 141 nM | 382 nM | 2580 nM | 3620 nM | 2.7 |  |  | 
CC(C)CC(=O)N1CCN(C(=O)c2ccc(-c3ccc4c(Cl)cc(C(N)=O)n4n3)cc2)CC1 | 502 nM | 1010 nM | 3840 nM | 5750 nM | 2 |  |  | 
CNCc1ccc(-c2ccc3c(Cl)cc(C(N)=O)n3n2)cc1 | 249 nM | 1120 nM | 1280 nM | 2000 nM | 4.5 |  |  | 
NC(=O)c1cc(Cl)c2ccc(-c3ccc(CN4CCN(c5ccc(C(F)(F)F)cc5)CC4)cc3)nn12 | 3330 nM | 445 nM | 8090 nM | > 10000 nM | 0.13 |  |  | 
NC(=O)c1cc(Cl)c2ccc(-c3ccc(CN4CCCC4)cc3)nn12 | 432 nM | 1120 nM | 5400 nM | 2150 nM | 2.6 |  |  | 
NC(=O)c1cc(Cl)c2ccc(-c3ccc(C(=O)N4CCN(C(=O)C5CC5)CC4)cc3)nn12 | 443 nM | 1100 nM | 9540 nM | 2480 nM | 2.5 |  |  | 
NC(=O)c1cc(Cl)c2ccc(-c3ccc(C(=O)N4CCN(C(=O)C5CC5)CC4)cc3F)nn12 | 219 nM | 2320 nM | 2950 nM | 2310 nM | 10.7 |  |  | 
NC(=O)c1cc(Cl)c2ccc(-c3ccc(F)c(C(=O)N4CCN(C(=O)C5CC5)CC4)c3)nn12 | 166 nM | 1920 nM |  | 7030 nM | 11.6 |  |  | 
NC(=O)c1cc(Cl)c2ccc(-c3ccc(C(=O)N4CCNCC4)cc3)nn12 | 340 nM | 1010 nM | 8090 nM | > 10000 nM | 3 |  |  | 
NC(=O)c1cc(Cl)c2ccc(-c3ccc(CN4CCNCC4)cc3)nn12 | 627 nM | 2330 nM | 9670 nM |  | 3.7 |  |  | 
NC(=O)c1cc(Cl)c2cc(-c3cc4c(s3)CNCC4)cnn12 |  |  |  |  |  | Dose-dependent effect |  | 
COC1CCN(C(=O)c2ccc(-c3ccc4c(Cl)cc(C(N)=O)n4n3)cc2)C1 (centres undefined) | 362 nM | 1710 nM | 9640 nM |  | 4.74 |  |  | 
O=C(c1cc(Cc2n[nH]c(=O)c3ccccc23)ccc1F)N1CCN(C(=O)C2CC2)CC1 [OLAPARIB] |  |  |  |  |  |  | 11.4 nM | 400 nM
CN(C)C1CCN(Cc2ccc(-c3ccc4c(Cl)cc(C(N)=O)n4n3)cc2)CC1 | 818 nM | 1130 nM | 5480 nM | 2780 nM | 1.4 |  |  | 
CN1CCc2sc(-c3ccc4c(Cl)cc(C(N)=O)n4n3)cc2C1 | 157 nM | 363 nM | 3050 nM | 2640 nM | 2.3 |  |  | 
CCN(CC)Cc1ccc(-c2ccc3c(Cl)cc(C(N)=O)n3n2)cc1 | 434 nM | 2200 nM | 3730 nM | 3510 nM | 5.1 |  |  | 
COC1CCN(C(=O)c2ccc(-c3ccc4c(Cl)cc(C(N)=O)n4n3)cc2)CC1 | 3510 nM | 4510 nM |  | 4420 nM | 1.28 |  |  | 
CC(C)N1CCN(Cc2ccc(-c3ccc4c(Cl)cc(C(N)=O)n4n3)cc2)CC1 | 369 nM | 1440 nM | 3550 nM | 2700 nM | 3.9 |  |  | 
COC1CCN(C(=O)c2ccc(-c3ccc4c(Cl)cc(C(N)=O)n4n3)c(F)c2)C1 (centres undefined) | 661 nM | 1590 nM |  |  | 2.4 |  |  | 
CN(C)Cc1ccc(-c2ccc3c(Cl)cc(C(N)=O)n3n2)cc1 | 93.3 nM | 705 nM | 687 nM | 6200 nM | 7.5 |  |  | 
COC1CCN(C(=O)c2ccc(-c3ccc4c(Cl)cc(C(N)=O)n4n3)c(F)c2)CC1 | 114 nM | 1640 nM |  |  | 8.9 |  |  | 
